Reference: paper PMC7092840 (Biochemical Pharmacology, 2011)
Read-outs that look alike come from different tables or passages of the source. Marks after values point to notes of the source that are not given here.

Tests used:
[1] = Aqueous solubility of hydrochloride salt; assay type: physicochemical; conditions: for Aqueous solubility of hydrochloride salt At pH 5.0 / Aqueous solubility of hydrochloride salt At pH 7.4 / solubility: 22 °C; for Aqueous solubility of hydrochloride salt At pH 5.0: 5 mM K2PO4 adjusted to pH 5.0, methanol as cosolvent; for Aqueous solubility of hydrochloride salt At pH 7.4: 5 mM K2PO4 adjusted to pH 7.4, methanol as cosolvent; for pKa × solubility in water at pH 5.0: product of calculated pKa and solubility at pH 5.0; for solubility: phosphate buffer
BHK cells [2] = assay: Distribution of LBPA-positive structures, confocal morphometry; assay type: cell-based; conditions: 16 h; for LBPA-positive structures Diameter / LBPA-positive structures N°/cell profile: BHK cells, 10 μM analogue, M ± SE; for LBPA-positive structures Diameter: control 1.46 ± 0.02; for LBPA-positive structures N°/cell profile: control 28.6 ± 1.1
BHK cells [3] = assay: Cell viability / tolerated concentration; assay type: cell-based
[4] = ref http://www.patentstorm.us/patents/6939865/description.html; cited from earlier work
[5] = ref [27]; cited from earlier work
blood monocytes = assay: Transferrin recycling; assay type: cell-based; conditions: human monocytes, 10 μM
Vero cells = assay type: cell-based
[6] = system: feline immunodeficiency virus (FIV) VLP budding from 293T cells; assay type: cell-based
[7] = system: HIV-1 VLP budding from 293T cells; assay type: cell-based, human immunodeficiency virus type 1
[8] = system: early endosomes from BHK cells
BHK cells [9] = assay: Cell cholesterol content; conditions: 10 μM, 16 h, p = 0.03, N = 5
K562 cells = assay: Exosome release; conditions: 10 μM, 16 h, N = 7, change not significant
[10] = 10 μM, 5 independent experiments, p < 0.01

CCCCc1oc2ccccc2c1C(=O)c1cc(I)c(OCCN2CCCCC2)c(I)c1.Cl [PIPAM, 4-(2-butyl-benzofuran-3-yl)-[3,5-diiodophenyl-4-(2-piperidinoethoxy)phenyl] methanone·hydrochloride]
Aqueous solubility of hydrochloride salt At pH 5.0 [1]: 2.22 ^b μM | Aqueous solubility of hydrochloride salt At pH 7.4 [1]: 0.023 ^b μM | pKa × solubility in water at pH 5.0 [1]: 11.88 | LBPA-positive structures Diameter (BHK cells [2]): 1.73 ± 0.03 μm | LBPA-positive structures N°/cell profile (BHK cells [2]): 14.7 ± 2.1

CCCCc1oc2ccccc2c1C(=O)c1cc(I)c(OCCN2CCCC2)c(I)c1.Cl [PYRAM, 4-(2-butyl-benzofuran-3-yl)-[3,5-diiodophenyl-4-(2-pyrrolidin-1-yl-ethoxy)phenyl]-methanone·hydrochloride]
Aqueous solubility of hydrochloride salt At pH 5.0 [1]: 1.86 ^b μM | Aqueous solubility of hydrochloride salt At pH 7.4 [1]: 0.049 ^b μM | pKa × solubility in water at pH 5.0 [1]: 9.22 | LBPA-positive structures Diameter (BHK cells [2]): 2.08 ± 0.05 μm | LBPA-positive structures N°/cell profile (BHK cells [2]): 7.6 ± 0.6

CCCCc1oc2ccccc2c1C(=O)c1cc(I)c(OCCN(C)C)c(I)c1 [MeAMI, (2-butyl-benzofuran-3-yl)-4-[2-(dimethylamino-ethoxy)-3,5-diiodophenyl]methanone]
Aqueous solubility of hydrochloride salt At pH 5.0 [1]: 2.21 ^b μM | Aqueous solubility of hydrochloride salt At pH 7.4 [1]: 0.051 ^b μM | pKa × solubility in water at pH 5.0 [1]: 17.50 | LBPA-positive structures Diameter (BHK cells [2]): 2.45 ± 0.08 μm | LBPA-positive structures N°/cell profile (BHK cells [2]): 4.5 ± 0.6

CCCCc1oc2ccc(NS(C)(=O)=O)cc2c1C(=O)c1ccc(OCCCN(CCCC)CCCC)cc1 [DRO, Dronedarone]
highest concentration tolerated by transfected cells (BHK cells [3]; BHK cells transiently transfected with pEGFP-LC3, 16 h): 2 µM | concentration toxic to cells (BHK cells [3]; BHK cells, 16 h): > 5 µM | Aqueous solubility of hydrochloride salt At pH 7.4 [4]: <0.001 ^c μM | serum levels, times lower than in patients treated with amiodarone [5]: over 10 times

CCCCc1oc2ccccc2c1C(=O)c1cc(I)c(OCCN(CC)CC)c(I)c1 [AMI, Amiodarone]
decrease in number of LBPA-rich structures per cell profile (BHK cells [2]; [10]): 69.0 ± 4.5% | increase in diameter of LBPA-rich structures (BHK cells [2]; [10]): 42.6 ± 5.2% | LBPA-positive structures Diameter (BHK cells [2]): 2.01 ± 0.03 μm | LBPA-positive structures N°/cell profile (BHK cells [2]): 5.2 ± 0.4 | effect on transferrin recycling (blood monocytes): no effect | effect on activity of Shiga toxin (Vero cells): not decreased | release of mature VLPs (FIV) [6]: did not inhibit the release of mature VLPs | release of mature VLPs (HIV-1) [7]: did not inhibit the release of mature VLPs | change in endosome-associated fluorescence [8]: no change | increase in cell cholesterol (BHK cells [9]): 17.3 ± 5.2% | decrease in secreted acetylcholinesterase with respect to control cells (K562 cells): 12.0 ± 8.7%

CCCCc1oc2ccccc2c1C(=O)c1cc(I)c(OCCN(C(C)C)C(C)C)c(I)c1.Cl [DIPAM, (2-butyl-benzofuran-3-yl)-4-[2-(diisopropylamino)ethoxy]-3,5-diiodophenyl-methanone·hydrochloride]
Aqueous solubility of hydrochloride salt At pH 5.0 [1]: 0.23 ^b μM | Aqueous solubility of hydrochloride salt At pH 7.4 [1]: 0.014 ^b μM | pKa × solubility in water at pH 5.0 [1]: 2.07 | LBPA-positive structures Diameter (BHK cells [2]): 1.64 ± 0.04 μm | LBPA-positive structures N°/cell profile (BHK cells [2]): 24.6 ± 3.0

CCCCc1oc2ccccc2c1C(=O)c1cc(I)c(OCCNCC)c(I)c1 [MDEA, 2-n-butyl-3-(3,5-diiodo-4-ethylaminoethoxybenzoyl)-benzofuran, reference compound]
solubility ([1]; pH 5): 12 µM | solubility ([1]; pH 7.4): 0.11 µM

CCCCc1oc2ccccc2c1C(=O)c1cc(I)c(OCCN2CCOCC2)c(I)c1 [MOPAM, 2-n-butyl-3-(3,5-diiodo-4-β-Nmorpholinoethoxybenzoyl)benzofuran]
Aqueous solubility of hydrochloride salt At pH 5.0 [1]: 0.17 ^b μM | Aqueous solubility of hydrochloride salt At pH 7.4 [1]: 0.015 ^b μM | pKa × solubility in water at pH 5.0 [1]: 0.55 | LBPA-positive structures Diameter (BHK cells [2]): 1.45 ± 0.02 μm | LBPA-positive structures N°/cell profile (BHK cells [2]): 29.3 ± 0.6
